According to patent publication US10857146B2, “Method for preventing or treating tumor diseases with a combination of tyrosine kinase inhibitor and CDK4/6 inhibitor” (Jiangsu Hengrui Medicine Co., Ltd., priority 2018, dated 2020):

How the values were obtained:
[1] = tested on: C019 (HER2 inhibitor-sensitive gastric cancer PDX model); experiment: Drug resistance test in HER2 inhibitor-sensitive gastric cancer PDX model (C019); type: in vivo; conditions: C019 mice, 40 mg/kg intragastrically once a day
From the text: (§1) A large-scale patient-derived tumor xenograft (PDX) model was constructed with a small amount of advanced gastric cancer tissue obtained by real-time endoscopic biopsy, thereby establishing a PDX tissue library. The PDX tissue was taken from the PDX tissue library, revived and inoculated subcutaneously into the mice. […] The tumor tissue was separated, and re-inoculated into new mice. […] C019 represents the mice one month after subcutaneous inoculation of the revived PDX tissue, S019 represents the mice two weeks after the administration of the compound of formula (I) at a single dose of 20 mg/kg, and R019 represents the mice three months after the administration of the compound of formula (I) in a single dose of 40 mg/kg.
Protocol of the drug resistance test: the inhibitor group was administrated with the compound of formula (I) (intragastrically, once a day, in a single dose of 40 mg/kg), and the control group was administrated with an equal volume of normal saline. The tumor volume was measured every three days. The result of drug sensitivity of C019 and R019 models is shown in FIG. 1 (average value of five mice).

[2] = tested on: R019 (HER2 inhibitor-resistant gastric cancer PDX model); experiment: Drug resistance test and combination administration in HER2 inhibitor-resistant gastric cancer PDX model (R019); type: in vivo; conditions: R019 mice, 40 mg/kg intragastrically once a day
[3] = tested on: advanced gastric cancer PDX tissue; experiment: Construction of HER2 inhibitor-resistant PDX model by prolonged administration; type: in vivo, mice
From the text: as §1

SMILES: CCOc1cc2ncc(C#N)c(Nc3ccc(OCc4ccccn4)c(Cl)c3)c2cc1NC(=O)/C=C/[C@H]1CCCN1C [compound of formula (I)]
- drug sensitivity of the model [1]: highly sensitive
- tumor inhibition rate ([1]; average value of five mice): > 100%
- drug sensitivity of the model [2]: high resistance
- tumor response after prolonged administration ([3]; 20 mg/kg intragastrically once a day for three months): resistance
- tumor response after prolonged administration ([3]; re-inoculated tumor, 40 mg/kg intragastrically once a day for three months): complete resistance
